Where “and” joins values, the source holds several entries; their conditions need not be identical. Equal values may be shown once. Read-outs that look alike come from different tables or passages of the source.
Key:
Type in all cases: cell-based, human
MDA-MB-231 = assay: BrdU chemiluminescent cell proliferation assay; details: for IC50: Homo sapiens, MDA-MB-231, 72 h, 72 hour treatment
Procedure: (§1) Test Agents—Cells are treated 24 hours after plating (Day 1) with vehicle or test agents at concentrations of 0.1 μM, 0.3 μM, 1 μM, 3 μM, 10 μM, 30 μM and 100 μM.
(§2) Tumor Cell Lines—Tumor cell lines (Table 1) are obtained from the American Type Cell Collection (ATCC, Rockville, Md.) or NCI-DCTD Tumor Repository (Bethesda, Md.) and maintained in proper growth media supplemented with 10% fetal bovine serum (FBS, NovaTech), and are maintained in specified growth media. Cells are propagated at 37° C. in a humidified atmosphere containing 5% carbon dioxide.
(§3) Cell proliferation assay—Cell proliferation is determined using BrdU chemiluminescent assay, which measures incorporation of 5-bromo-2′-deoxyuridine (BrdU) into the genomic DNA of proliferating cells. Briefly, cells are added with BrdU for 4 hours, during which time it incorporates into the DNA of dividing cells in place of thymidine. Following labeling, cells are fixed and DNA denatured in one step by adding a FixDenat® denaturizing solution. After removing FixDenat, an anti-BrdU-peroxidase conjugated antibody is added, which binds to BrdU incorporated into newly-synthesized cellular DNA. Following antibody incubation, cells are washed 3 times with PBS and subjected to luminescent analysis. The reaction product is quantified by measuring light emission using a scanning multi-well luminometer (luminescence ELISA reader.)
(§4) Experimental Design—Tumor cells (Table 1) are grown to 70% confluency, trypsinized, counted and seeded in 96 well flat-bottom plates at final concentrations of 7.5×103-3×10^4 cells/well (Day 0); treatment with IIIg begins on Day 1 and continues for 68 hours (Table 2). Doses for both compounds range between […] and 100 μM. At the 68 hour time point, viable cell number is measured by BrdU assay as described above. Experiments are repeated at least twice at the same doses to determine inhibition of cell proliferation. Results from these studies are used to calculate an IC50 value (drug concentration that results in half-maximal response) for IIIg in each line.
(§5) For single studies, data from each experiment is collected and expressed as % Inhibition of Cell Proliferation (% ICP) using the following calculation.
(§6) % ICP=100%×[(1−(RLUtest/RLUvehicle)]
(§7) Where RLUtest is the relative light unit of the tested sample, and RLUvehicle is the relative light unit of the vehicle in which the drug is dissolved. An IC50 value is calculated from % ICP (PRISM® GraphPad software) using the formula:
(§8) y=min+(max−min)/(1+10^(Log(IC50)−x)×Hillslope)
(§9) Where (x) is the logarithm of agonist concentration, (y) is the response, and (min) and (max) are the variable lower and upper plateaus, respectively. The variable Hillslope characterizes the slope of the curve at its midpoint. The IC50 is the drug concentration for y halfway between min and max.

MX-1 = assay: BrdU chemiluminescent cell proliferation assay; details: for IC50: Homo sapiens, MX1, 72 hour treatment
Procedure: as §1, §2, §3, §4, §5, §6, §7, §8, §9

NIH: OVCAR-3 = assay: BrdU chemiluminescent cell proliferation assay; details: for IC50: Homo sapiens, OVCAR-3, 72 h, 72 hour treatment
Procedure: as §1, §2, §3, §4, §5, §6, §7, §8, §9

PANC-1 = assay: BrdU chemiluminescent cell proliferation assay; details: for IC50: Homo sapiens, PANC-1, 72 h, 72 hour treatment
Procedure: as §1, §2, §3, §4, §5, §6, §7, §8, §9

PC-3 = assay: BrdU chemiluminescent cell proliferation assay; details: for IC50: Homo sapiens, PC-3, 72 h, 72 hour treatment
Procedure: as §1, §2, §3, §4, §5, §6, §7, §8, §9

[1] = system: Colo375FG metastatic pancreatic adenocarcinoma cells; assay: TUNEL apoptosis assay (flow cytometry); details: for Dead cells TUNEL (%): Compound IIIc 0 mM
Procedure: Cells are labeled for apoptosis with the “In Situ Cell Death Detection Kit, Fluorescein” (Roche Diagnostics Corporation, Roche Applied Science, Indianapolis, Ind.). Briefly, fixed cells are centrifuged and washed once in phosphate-buffered saline (PBS) containing 1% bovine serum albumin (BSA), then resuspended in 2 ml permeabilization buffer (0.1% Triton X-100 and 0.1% sodium citrate in PBS) for 25 min at room temperature and washed twice in 0.2 ml PBS/1% BSA. The cells are resuspended in 50 μl TUNEL reaction mixture (TdT enzyme and labeling solution) and incubated for 60 min at 37° C. in a humidified dark atmosphere in an incubator. The labeled cells are washed once in PBS/1% BSA, then resuspended in 0.5 ml ice-cold PBS containing 1 μg/ml 4′,6-diamidino-2-phenylindole (DAPI) for at least 30 min. All cell samples are analyzed with a BD LSR II (BD Biosciences, San Jose, Calif.).
The cells are labeled for apoptosis with the “In Situ Cell Death Detection Kit, Fluorescein” (Roche Diagnostics Corporation, Roche Applied Science, Indianapolis, Ind.). Briefly, fixed cells are centrifuged and washed once in phosphate-buffered saline (PBS) containing 1% bovine serum albumin (BSA), then resuspended in 2 ml permeabilization buffer (0.1% Triton X-100 and 0.1% sodium citrate in PBS) for 25 minutes at room temperature and washed twice in 0.2 ml PBS/1% BSA. The cells are resuspended in 50 μl TUNEL reaction mixture (TdT enzyme and labeling solution) and incubated for 60 min at 37° C. in a humidified dark atmosphere in an incubator. The labeled cells are washed once in PBS/1% BSA, then resuspended in 0.5 ml ice-cold PBS containing 1 μg/ml 4,6-diamidino-2-phenylindole (DAPI) for at least 30 min. All cell samples are analyzed with a BD LSR II (BD Biosciences, San Jose, Calif.).

[2] = mean of Exp1 and Exp2, read-out: Mean IC50

O=c1ccc2c(I)c([N+](=O)[O-])ccc2o1 [IIIg, 5-iodo-6-nitro-benzopyrone] showed an IC50 (MDA-MB-231; Exp1, read-out: IC50) of 24 µM, an IC50 (MDA-MB-231; Exp2, read-out: IC50) of 24.3 µM and an IC50 (MDA-MB-231; [2]) of 24.2 µM. The “Mean Maximum % Response” value (MDA-MB-231; Max Concentration 100 μM) was 99%, the IC50 (MX-1; Exp2, read-out: IC50) was 27 µM and the IC50 (MX-1; [2]) was 27 µM. The “Mean Maximum % Response” value (MX-1; Max Concentration 100 μM) was 99%, the IC50 (NIH: OVCAR-3; Exp1, read-out: IC50) was 30.4 µM and the IC50 (NIH: OVCAR-3; Exp2, read-out: IC50) was 29.6 µM. For the same molecule, the IC50 (NIH: OVCAR-3; [2]) was 30 µM, the “Mean Maximum % Response” value (NIH: OVCAR-3; Max Concentration 100 μM) was 98% and the IC50 (PANC-1; Exp1, read-out: IC50) was 22 µM. For the same molecule, the IC50 (PANC-1; Exp2, read-out: IC50) was 27 µM, the IC50 (PANC-1; [2]) was 24.5 µM and the “Mean Maximum % Response” value (PANC-1; Max Concentration 100 μM) was 99%. The IC50 (PC-3; Exp1, read-out: IC50) was 22 µM, the IC50 (PC-3; Exp2, read-out: IC50) was 25.3 µM and the IC50 (PC-3; [2]) was 23.7 µM. The “Mean Maximum % Response” value (PC-3; Max Concentration 100 μM) was 100%, the “TUNEL (%)” value ([1]; IIIg 2.5 μM, OxaliPt 0 μM) was 3.3% and 2.5% and the “TUNEL (%)” value ([1]; combination: IIIg 2.5 μM + OxaliPt 10 μM) was 19%. For the same molecule, the “TUNEL (%)” value ([1]; combination: IIIg 2.5 μM + OxaliPt 20 μM) was 42%, the “TUNEL (%)” value ([1]; combination: IIIg 12.5 μM + OxaliPt 10 μM) was 57.3% and the “TUNEL (%)” value ([1]; combination: IIIg 12.5 μM + OxaliPt 20 μM) was 85.7%. For the same molecule, the “TUNEL (%)” value ([1]; combination: IIIg 25 μM + OxaliPt 10 μM) was 89.5% and the “TUNEL (%)” value ([1]; combination: IIIg 25 μM + OxaliPt 20 μM) was 94.2%.

With O=C1[O][Pt]2([NH][C@@H]3CCCC[C@H]3[NH]2)[O]C1=O [OxaliPt, oxaliplatin, reference compound] the “Dead cells TUNEL (%)” value ([1]; OxaliPt 10 mM) was 21.0%, the “Dead cells TUNEL (%)” value ([1]; OxaliPt 20 mM) was 48.3% and the “TUNEL (%)” value ([1]; IIIg 0 μM, OxaliPt 10 μM) was 21%. For the same molecule, the “TUNEL (%)” value ([1]; IIIg 0 μM, OxaliPt 20 μM) was 48.3%.
